# Experimental data as given in article PMC8370991, “Structural basis for the inhibition of HTLV-1 integration inferred from cryo-EM deltaretroviral intasome structures” (Nature Communications, 2021).
# Where two headings read alike, the source gives them in different places.
# Target: T1, recombinant HTLV-1 IN (Human T-cell leukemia virus 1, UniProt P03362)
# T1 construct: made in house
# Test: In vitro integration strand transfer assay with HTLV-1 IN
# Format: biochemical
# Conditions: for HTLV-1 IN strand transfer activity (No drug = 100): INSTI at 634 nM
# Method: We used in vitro strand transfer assays to screen this small molecule library for its ability to inhibit recombinant HTLV-1 IN. The enzyme was incubated with an oligonucleotide vDNA donor mimic in the presence or absence of INSTIs and was allowed to react with a supercoiled plasmid mimicking target DNA. During the screening, the concentration of each compound was adjusted to 634 nM to provide optimal resolution of efficacy between well- and under-performing compounds.
# The donor vDNA that mimics the 3′-processed LTR of HTLV-1 or STLV-1 DNA was preassembled by annealing the U5_S20Q_UP and U5_S20Q_B or MarB43_U5_S30UP or MarB43_U5_S30B oligonucleotides, respectively (Supplementary Table 4) in 100 mM Tris pH 7.4, 400 mM NaCl. For HTLV-1 IN, strand transfer reactions were conducted in a solution of 24.3 mM PIPES pH 6.0, 138.4 mM NaCl, 16.6 mM MgCl2, 5.8 μM ZnCl2, 12.7 mM DTT, 0.53 μM donor DNA and 4 μg of HTLV-1 IN[9],[39]. In brief, the reaction was incubated at RT for 15 min in the presence of an INSTI or dimethyl sulfoxide (DMSO) control and the reaction was started by the addition of 300 ng of pGEM-9Zf(-) supercoiled plasmid DNA. The reaction was incubated for 1 h at 37 °C and stopped by adding 0.5% SDS and 25 mM ethylenediaminetetraacetic acid (EDTA), pH 8.0.
# Proteins were degraded by incubation with 30 μg of proteinase K (Roche) at 37 °C for 1 h. DNA was precipitated at −20 °C overnight in the presence of ethanol supplemented with 20 μg of glycogen and then resuspended in 1.5× agarose loading dye. The DNA products were separated by electrophoresis through 1.5% agarose gel and stained with ethidium bromide and imaged using the BioRad GelDox XR + imager. The data were analysed and the IC50 calculated as previously described. In brief, the DNA band that corresponds to the concerted integration product was quantified by densitometry in ImageLab 4.1 (Bio-Rad). All experiments were done in triplicate. Quantified data points were fitted to dose–response curves in Prism 9. The cumulative standard deviation for each drug was calculated as an average of the upper limit and lower limit values: Lowerlimit=IC50/10^logSE(IC50) Upperlimit=IC50×10^logSE(IC50)
# [1] = Replicate 1, read-out: HTLV-1 IN strand transfer IC50
# [2] = Replicate 2, read-out: HTLV-1 IN strand transfer IC50
# [3] = Replicate 3, read-out: HTLV-1 IN strand transfer IC50
# [4] = integrase strand-transfer drug titration, n = 3, read-out: HTLV-1 IC50 ± stdev
# T1 sequence (P03362 1168-1462): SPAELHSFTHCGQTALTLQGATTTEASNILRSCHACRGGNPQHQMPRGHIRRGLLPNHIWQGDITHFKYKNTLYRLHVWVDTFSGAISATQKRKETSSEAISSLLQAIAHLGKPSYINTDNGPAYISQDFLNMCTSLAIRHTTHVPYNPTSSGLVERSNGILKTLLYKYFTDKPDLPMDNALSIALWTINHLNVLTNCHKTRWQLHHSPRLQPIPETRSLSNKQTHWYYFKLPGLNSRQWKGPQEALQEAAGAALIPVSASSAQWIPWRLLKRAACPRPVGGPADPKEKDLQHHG
SMILES,HTLV-1 IN strand transfer activity (No drug = 100) (Replicate 1) [%],HTLV-1 IN strand transfer activity (No drug = 100) (Replicate 2) [%],HTLV-1 IN strand transfer activity (No drug = 100) (Replicate 3) [%],IC50 [1] [nM],IC50 [2] [nM],IC50 [3] [nM],IC50 [4] [nM],IC50 compared with that of RAL (dose-response strand transfer assays)
"Nc1ccc(-c2ccc(Nc3cc(=O)n(O)c4ncccc34)cc2)cc1 [XZ460, 4-((4'-amino-[1,1'-biphenyl]-4-yl)amino)-1-hydroxy-1,8-naphthyridin-2(1H)-one]",91.7662,81.7265,81.1342,–,–,–,–,–
"COC(=O)c1c(N)c2cccnc2n(O)c1=O [XZ462, methyl 4-amino-1-hydroxy-2-oxo-1,2-dihydro-1,8-naphthyridine-3-carboxylate]",111.483,96.7056,116.696,–,–,–,–,–
"O=C(NCc1ccc(F)cc1F)c1c(O)c2cccnc2n(O)c1=O [XZ351, N-(2,4-difluorobenzyl)-1,4-dihydroxy-2-oxo-1,2-dihydro-1,8-naphthyridine-3-carboxamide]",30.0691,57.1529,59.6295,–,–,–,–,–
"Cc1c2c(c(O)c(=O)n1C)C(=O)N(Cc1ccc(F)c(Cl)c1)C2=O [XZ202, 2-(3-chloro-4-fluorobenzyl)-7-hydroxy-4,5-dimethyl-1H-pyrrolo[3,4-c]pyridine-1,3,6(2H,5H)-trione]",98.3269,98.0594,97.9688,–,–,–,–,–
"O=C(O)/C(O)=C/C(=O)c1cc(OCc2ccccc2)cc(OCc2ccccc2)c1 [XZ320, (Z)-4-(3,5-bis(benzyloxy)phenyl)-2-hydroxy-4-oxobut-2-enoic acid, reference compound]",35.3455,62.3815,55.2426,–,–,–,–,–
"O=C(NCc1ccc(F)cc1F)c1c(NCCO)c2cc(CCCCCO)cnc2n(O)c1=O [XZ439, N-(2,4-difluorobenzyl)-1-hydroxy-4-((2-hydroxyethyl)amino)-6-(5-hydroxypentyl)-2-oxo-1,2-dihydro-1,8-naphthyridine-3-carboxamide]",27.6089,29.3463,25.7676,270,239,232,–,–
"Cc1c2c(c(O)c(=O)n1Cc1ccc(F)c(Cl)c1)C(=O)N(C)C2=O [XZ242, 5-(3-chloro-4-fluorobenzyl)-7-hydroxy-2,4-dimethyl-1H-pyrrolo[3,4-c]pyridine-1,3,6(2H,5H)-trione]",115.41,99.061,100.661,–,–,–,–,–
"O=C(NN1Cc2ccc(O)c(O)c2C1=O)c1cccc(O)c1O [XZ49, N-(6,7-dihydroxy-1-oxoisoindolin-2-yl)-2,3-dihydroxybenzamide]",94.3672,88.3747,109.808,–,–,–,–,–
"CCN1CCn2c(c3c(c(O)c2=O)C(=O)N(Cc2ccc(F)c(Cl)c2)C3=O)C1=O [XZ256, 9-(3-chloro-4-fluorobenzyl)-2-ethyl-7-hydroxy-3,4-dihydropyrrolo[3',4':3,4]pyrido[1,2-a]pyrazine-1,6,8,10(2H,9H)-tetraone]",112.467,93.5244,114.376,–,–,–,–,–
"O=C1c2c(ccc(O)c2O)CN1Cc1ccc(F)c(Cl)c1 [XZ90, 2-(3-chloro-4-fluorobenzyl)-6,7-dihydroxyisoindolin-1-one]",47.6981,83.7072,92.5665,–,–,–,–,–
"CC(C)NC(=O)/C=C/c1cnc2c(c1)c(N)c(C(=O)NCc1ccc(F)cc1F)c(=O)n2O [XZ452, (E)-4-amino-N-(2,4-difluorobenzyl)-1-hydroxy-6-(3-(isopropylamino)-3-oxoprop-1-en-1-yl)-2-oxo-1,2-dihydro-1,8-naphthyridine-3-carboxamide]",11.3751,23.2017,17.2877,174,162,229,182 ± 44.7,–
"O=C(NNC(=O)c1cccc(O)c1O)c1ccccc1O [XZ45, 2,3-dihydroxy-N'-(2-hydroxybenzoyl)benzohydrazide]",95.0641,107.975,100.183,–,–,–,–,–
"[N-]=[N+]=NCc1cccc(C(=O)/C=C(\O)C(=O)O)c1 [XZ319, (Z)-4-(3-(azidomethyl)phenyl)-2-hydroxy-4-oxobut-2-enoic acid]",88.4055,92.5212,100.53,–,–,–,–,–
"COC(=O)c1c(Nc2ccc(-c3ccc(N)cc3)cc2)c2cccnc2n(O)c1=O [XZ456, methyl 4-((4'-amino-[1,1'-biphenyl]-4-yl)amino)-1-hydroxy-2-oxo-1,2-dihydro-1,8-naphthyridine-3-carboxylate]",112.032,94.791,89.3626,–,–,–,–,–
"CN(C)C(=O)c1nc(O)c(O)c2c1CCN(Cc1ccc(F)c(Cl)c1)C2=O [XZ235, 6-(3-chloro-4-fluorobenzyl)-3,4-dihydroxy-N,N-dimethyl-5-oxo-5,6,7,8-tetrahydro-2,6-naphthyridine-1-carboxamide]",50.5732,55.8637,62.5799,–,–,–,–,–
"Nc1c(C(=O)NCc2ccc(F)cc2F)c(=O)n(O)c2ncc(-c3ccccc3)cc12 [XZ420, 4-amino-N-(2,4-difluorobenzyl)-1-hydroxy-2-oxo-6-phenyl-1,2-dihydro-1,8-naphthyridine-3-carboxamide]",20.0015,29.6468,21.6983,276,499,466,411 ± 93,no significant improvement over RAL
